Experiments:
[1] = Cytotoxicity assay (MTT) parallel to HCMV infectivity assay; format: cell-based; conditions: human, HFF cells, read-out: HCMV TC50
Method: (§1) In parallel to the infectivity assays, in order to determine the cytotoxic properties of the compound, cells were seeded in 96 well plates and the following day pre-treated with the same serial dilutions of compound in 100 μl of assay media. The compound was left on the cells for the duration of the infectivity assays, after which a metabolic assay (MTT assay) was used to determine cell viability compared to a DMSO-treated control.

ZIKV = experiment: Infectivity assay ZIKV in SH-SY5Y cells; format: cell-based; conditions: Zika virus, MOI 5, 48 h, E staining
Method: (§2) Cells were seeded in 96 well plates and the following day pre-treated with a 3-fold serial dilution of compound starting from 20 μM, in 100 μL of assay media. 24 hours later, cells were infected (without removing the media) with ZIKV or HCMV at a multiplicity of infection (MOI) compatible with multiple rounds of virus replication. DMSO-treated infected and uninfected cells were included as positive and negative controls. [table]

[2] = test system: Human osteosarcoma U20S cells; experiment: Assay to measure lysosome and autolysosome formation (acidic vesicle formation, LysoView/LysoTracker staining); format: cell-based; conditions: U20S cells
In short: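 U2OS cells treated with compounds in DMSO for 24 h, then stained 45 min at 37 °C with 1× LysoView 633 or 50 nM LysoTracker Deep Red, with Hoechst nuclear counterstain. Live-cell fluorescence imaging at 37 °C; acidic vesicle formation judged against DMSO-treated control.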

[3] = test system: adult human dermal fibroblast cells (HDFa cells); experiment: Acidic vesicle formation in adult human dermal fibroblast cells; format: cell-based; conditions: concentration of 10 μM
Text: This is evidence for significant stimulation of autophagy by this compound under these conditions.

[4] = test system: Mutant PNPLA3-Expressing HepG2 Cells (GFP-PNPLA3 (1148>M)); experiment: Cellular model of NAFLD: gel assay for mutant PNPLA3-expressing HepG2 cells; format: cell-based; conditions: HepG2 cells transfected with GFP-PNPLA3 (1148>M), 24 hours
Method: Method: HepG2 cells were transfected with GFP-PNPLA3 (1148>M) overexpression plasmid using Lipofectamine LTX in DMEM media supplied with 1% Oleic Acid-BSA and were left overnight. The next day, cells were trypsinated and were seeded in a 96-well plate in DMEM media supplied with 1% Oleic Acid-BSA. After 7 hours, media was changed to standard DMEM supplied with the compound of interest. After 24 hours, cells were washed once with PBS and were lysed in RIPA buffer. Lysates were collected, centrifuged and the supernatants were mixed with Laemmli buffer (without DTT or boiling) and were loaded on a 4-20% SDS-PAGE gel. After electrophoresis, gels were directly imaged in the FITC channel to visualise the GFP signal.

[5] = test system: Differentiated hepatocyte GSD1A disease model cells; experiment: iPSC model of glycogen storage disease type 1A: glycogen and triglyceride quantification; format: cell-based, human; conditions: hepatocytes differentiated from GSD1A patient derived iPSCs, 10 μM
Method: Timetable for Treatment of Cells with the Compounds: • Day 1. Differentiated hepatocyte GSD1A disease model cells (DefiniGEN Ltd) were cultured in a collagen I coated 48-well plate. Empty wells were filled with PBS. • Day 9. The racemic mixture of compounds 170 and 171 (as a solution in DMSO) was added to the disease model cells • Day 11. Media for disease model cells was replaced with fresh media with compound. • Day 12. Cells were washed once in PBS and once in HBSS and 30 μL of NP40 Lysis buffer supplied with Phosphatase and Protease inhibitor cocktail was added to each well. Plate was immediately placed on dry ice. […]
Protein quantification: An aliquot of the lysates was used for protein quantification using BCA.
Glycogen quantification: An aliquot of the lysates was boiled at 96° C. for 5 minutes. […] Supernatant was used for Glycogen quantification using MAK016 kit (Merck), following manufacturer's instructions. […] 8 μL of Hydrolysis buffer from the kit was added to one aliquot from each sample (-HE; to quantify free glucose content of the lysate). The other sample was supplied with 8 μL of Hydrolysis buffer supplied with Hydrolysis Enzyme (+HE; to quantify free glucose+glycogen content of the lysate). After 30 minutes of incubation at room temperature, 10 μL of probe mix was added to each well and the absorbance at 570 nm was measured after 30 minutes incubation at room temperature. […]

SH-SY5Y = experiment: Cytotoxicity assay (MTT) parallel to ZIKV infectivity assay; format: cell-based; parameters: key: A “—” symbol indicates no inhibition; conditions: SH-SY5Y cells, 48 h
Method: as §1

HCMV = experiment: Infectivity assay HCMV in HFF cells; format: cell-based, Human Cytomegalovirus (HCMV); conditions: Human betaherpesvirus 5, 360 h, MOI 1, 15 days, gB staining
Method: as §2

[6] = test system: dopaminergic Tyrosine hydroxylase (TH)-positive neurons injured with MPTP; experiment: Cellular model of Parkinson's disease (MPTP/MPP+ injury of primary mesencephalic neurons); format: cell-based, Rat; conditions: concentrations of 10 μM
Text: This model (run by Neuro-Sys SAS, France) is based on a primary culture of dopaminergic Tyrosine hydroxylase (TH)-positive neurons injured with the dopaminergic neurons-specific toxin (DA-toxin) 1-methyl-4-phenyl-1,2,3,6 tetrahydropyridine (MPTP, a prodrug of MPP*) (Dauer and Przedborski, 2003). Any substances reducing DA-toxin neurotoxicity may be useful as a new therapeutic agent for the treatment or prevention of PD.
Primary culture of mesencephalic neurons: Rat dopaminergic neurons were cultured as described by Visanji et al., 2008 and Callizot et al., 2019. Briefly, pregnant female rat (Wistar) of 15 days of gestation were killed using a deep anesthesia with CO2 chamber and a cervical dislocation. The midbrains obtained from 15-day-old rat embryos (Janvier, France) were dissected under a microscope. The embryonic midbrains will be removed and placed in ice-cold medium of Leibovitz (L15) containing 2% of Penicillin-Streptomycin (PS) and 1% of bovine serum albumin (BSA). The ventral portion of the mesencephalic flexure, a region of the developing brain rich in dopaminergic neurons, was used for the cell preparations.
The midbrains were dissociated by trypsinisation for 20 min at 37° C. (solution at a final concentration of 0.05% trypsin and 0.02% EDTA). The reaction was stopped by the addition of Dulbecco's modified Eagle's medium (DMEM) containing DNAase I grade II (0.5 mg/mL) and 10% of foetal calf serum (FCS). Cells were then mechanically dissociated by 3 passages through a 10 ml pipette. Cells were then centrifuged at 180×g for 10 min at +4° C. on a layer of BSA (3.5%) in L15 medium. The supernatant was discarded and the cell pellets re-suspended in a defined culture medium consisting of Neurobasal supplemented with B27 (2%), L-glutamine (2 mM) and 2% of PS solution and 10 ng/mL of Brain-derived neurotrophic factor (BDNF) and 1 ng/mL of Glial-Derived Neurotrophic Factor (GDNF). Viable cells were counted in a Neubauer cytometer using the trypan blue exclusion test. The cells were seeded at a density of 40,000 cells/well in 96 well-plates (pre-coated with poly-L-lysine) and maintained in a humidified incubator at 37° C. in 5% CO2/95% air atmosphere. Half of the medium was changed every 2 days with fresh medium. The wells of first and last lines and columns […] (to avoid any edge effect) and were be filled with sterile water.
Test compounds and MPTP: • i) Pre-incubation. On day 6 of culture, the test compounds were dissolved in PBS or DMSO and incubated for 1 hour before the MPTP exposure. • ii) Injury. One hour after the application of test compound, MPTP was added to a final concentration of 4 μM, diluted in control medium still in presence of compounds/inhibitors for 48h. Test compounds were tested on one culture in 96-well plate (n=6 culture wells per condition).
Immunostaining: TH and α-Synuclein. 48 Hours after intoxication, the cell culture supernatant was removed, and the cells were fixed by a solution of 4% paraformaldehyde in PBS, pH=7.3 for 20 min at room temperature. The cells were washed twice in PBS, and then permeabilized. Non-specific sites were blocked with a solution of PBS containing 0.1% of saponin and 1% FCS for 15 min at room temperature. The cultures were incubated with: (a) monoclonal anti-Tyrosine Hydroxylase (TH) antibody produced in mouse at dilution of 1/10000 in PBS containing 1% FCS, 0.1% saponin, for 2 hours at room temperature, and (b) polyclonal anti-alpha synuclein (α-synuclein) antibody produced in rabbit at dilution of 1/200 in PBS containing 1% FCS, 0.1% saponin, for 2 h at room temperature.
Automatic computer analysis. For each condition, 20 pictures (representing the whole well area) were automatically taken using ImageXpress® (Molecular Devices) at 10× magnification (20 pictures, for TH and α-synuclein into TH neurons) using the same acquisition parameters. From images, analyses was directly and automatically performed by MetaXpress® (Molecular Devices).

| SMILES | CC50 at 15 days [1] | IC50 (ZIKV) | acidic vesicle formation relative to a DMSO-treated control ([2]; concentration of 10 μM, 24 hours) | increase in acidic vesicle formation ([2]; relative to DMSO-treated control (10 μM)) | acidic vesicle formation relative to a DMSO-treated control [3] | fold increase in GFP breakdown Bafilomycin-sensitive-product signal versus an inactive control [4] | reduction of cellular glycogen compared with the DMSO-only control [5] | reduction of cellular triglycerides compared with the DMSO-only control [5] | ZIKV TC50 (SH-SY5Y) | IC50 (HCMV) | increase in the length of the neurite network of dopaminergic TH positive neurons compared to the MPP+ injury alone ([6]; 1 μM and 500 nM) | increase in the number of dopaminergic TH positive neurons compared to MPP+ injury alone ([6]; 1 μM and 500 nM) | decrease in α-syn area per dopaminergic TH positive neuron compared to MPP+ injury alone ([6]; 1 μM, 500 nM and 100 nM) |
| --- | --- | --- | --- | --- | --- | --- | --- | --- | --- | --- | --- | --- | --- |
| CCCN(C(=O)c1csc(-c2cnn(-c3ccccc3)c2)n1)C1CCNC1 (racemic) [racemic mixture of compounds 170 and 171] | > 75 µM | < 15 µM | clearly increased | at least 25% | significantly greater acidic vesicle formation | 3.7 fold | over 75% | > 20% | — | < 10 µM |  |  |  |
| NC[C@H]1CCCN1C(=O)c1csc(-c2cnn(-c3ccccc3)c2)n1 [Compound 156, 1-[(2R)-1-[2-(1-phenyl-1H-pyrazol-4-yl)-1,3-thiazole-4-carbonyl]pyrrolidin-2-yl]methanamine] |  |  |  |  |  |  |  |  |  |  | > 39% | > 18% | > 13% |
